Experimental data from patent publication US10844049B2, “GLP-1R agonists and uses thereof” (QILU REGOR THERAPEUTICS INC., priority 2018, dated 2020).
pEC50: −log10 of the molar value.

The compounds below were run against GLP1R (Homo sapiens, UniProt P43220) (assay: GLP1R cAMP HTRF assay, HEK293/GLP-1R/CRE/Luc (HEK293T cells)). Settings: read-out: EC50.
Chain of GLP1R (P43220 24-463): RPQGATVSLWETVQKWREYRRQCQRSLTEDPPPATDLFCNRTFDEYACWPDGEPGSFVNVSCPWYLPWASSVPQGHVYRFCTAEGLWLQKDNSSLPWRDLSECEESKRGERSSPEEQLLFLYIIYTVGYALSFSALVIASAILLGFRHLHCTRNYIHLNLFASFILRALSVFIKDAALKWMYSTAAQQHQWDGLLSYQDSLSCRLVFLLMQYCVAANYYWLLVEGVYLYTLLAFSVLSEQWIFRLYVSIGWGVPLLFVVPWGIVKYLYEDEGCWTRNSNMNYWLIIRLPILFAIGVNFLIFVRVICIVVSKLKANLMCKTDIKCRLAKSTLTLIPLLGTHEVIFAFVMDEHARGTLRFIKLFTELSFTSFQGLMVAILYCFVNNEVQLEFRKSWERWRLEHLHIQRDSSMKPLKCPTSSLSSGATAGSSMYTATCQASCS
Type: cell-based
Experimental: GLP-1R-mediated agonist activity was determined with a cell-based functional assay utilizing an HTRF (Homogeneous Time-Resolved Fluorescence) cAMP detection kit (cAMP Dynamic 2 Assay Kit; CisBio cat #62AM4PEC) that measures cAMP levels in the cell. The method is a competitive immunoassay between native cAMP produced by the cells and exogenous cAMP labeled with the dye d2. The tracer binding is visualized by a mAb anti-cAMP labeled with Cryptate. The specific signal (i.e., energy transfer) is inversely proportional to the concentration of cAMP in either standard or experimental sample.
A cell line stably expressing the receptor was isolated.
Varying concentrations of each compound to be tested (in DMSO) were diluted in DMSO to obtain 200× compound working solution first and then 50 nl compounds were added to a white 384-well assay plate (Greiner 784075) with ECHO. The final DMSO concentration was 0.5%. The compound concentration range may be adjusted at any time.
Cells were removed from cryopreservation, re-suspended in 5 mL of Dulbecco's Phosphate Buffered Saline (DPBS-Sigma Cat # D8537) and centrifuged at 900 g for 5 min at 22° C. The cell pellet was then re-suspended in 1 mL of assay buffer [DPBS with 500 μM IBMX (Sigma #15879) and 0.1% BSA (Sigma # A1933). IBMX and BSA were freshly added on the day of assay]. A 10 μL sample of the cell suspension was counted on an Invitrogen Countess II to determine cell viability and cell count per mL. The remaining cell suspension was then adjusted with assay buffer to deliver 1000 viable cells per well using a Matrix Combi Multidrop reagent dispenser. 10 μL cell suspensions were added to each well of the assay plate which already contains compound. The plate was sealed and incubated at 37° C. with 5% CO2 for 30 minutes.
Following the 30 minute incubation, 5 μL of labeled d2 cAMP and 5 μL of anti-cAMP antibody (both diluted 1:20 in cell lysis buffer; as described in the manufacturer's assay protocol) were added to each well of the assay plate. The plates w ere then incubated at room temperature and after 60 minutes, changes in the HTRF signal were read with an Envision multi-label plate reader using excitation of 330 nm and emissions of 615 and 665 nm. Raw data were converted to nM cAMP by interpolation from a cAMP standard curve (as described in the manufacturer's assay protocol) and the percent effect was determined relative to a saturating concentration of the full agonist GLP-17-37 (10 nM) included on each plate. EC50 determinations were made from agonist dose-response curves analyzed with a curve fitting program using a 4-parameter logistic dose response equation.
3) Anti-cAMP antibody-cryptate working solution preparation • c) The lyophilisate was reconstituted with appropriate amount of distilled water according to manufacturer's instruction to make working stock which can be aliquoted and frozen (−20° C.). • d) The working stock solution was diluted 1:20 in the conjugate and lysis buffer before use. Procedures Procedures for Cell Suspension Preparation • 1. Frozen cells were thawed very briefly in a 37° C. water bath under sterile conditions until just before ice completely melt (for about 1 minute) with a continuous agitation. Caution was taken because a longer incubation could result in cell death. • 2. DMSO was removed from the media by carefully transferring thawed cells to a sterile 15/50 mL tube, filling a tube with 10-50 mL of complete media pre-warmed to 37° C., and allowing the cells to sit 5 min before centrifuging at 900 rpm for 5 minutes for cell collection. • 3. The cells were resuspended with assay buffer. • 4. For stable GLP1-R assay, the optimized cell density is 1000 cells/well. Caution was taken because cell density optimization was crucial and needed to be optimized in different laboratories. The level of cAMP produced by the cells must fall within the linear range of the standard curve.
A pEC50 of at least 7.82 was found for `O=C(O)c1ccc2nc(CN3CC=C(c4cccc(OCc5ccc(Cl)c(Cl)c5)n4)CC3)n(C[C@@H]3CCO3)c2c1` [Compound 115, (S)-2-((6-((3,4-dichlorobenzyl)oxy)-3′,6′-dihydro[2,4′-bipyridin]-1′(2′H)-yl)methyl)-1-(oxetan-2-ylmethyl)-1H-benzo[d]imidazole-6-carboxylic add] in this work. A pEC50 of at least 6.82 was found for `O=C(O)c1ccc2nc(CN3CC=C(c4cccc(OCc5ccc(OC(F)(F)F)nc5)n4)CC3)n(C[C@@H]3CCO3)c2c1` [Compound 121, (S)-1-(oxetan-2-ylmethyl)-2-((6-((6-(trifluoromethoxy)pyridin-3-yl)methoxy)-3′,6′-dihydro-[2,4′-bipyridin]-1′(2′H)-yl)methyl)-1H-benzo[d]imidazole-6-carboxylic acid] in this work. A pEC50 of at least 7.82 was found for `O=C(O)c1ccc2nc(CN3CC=C(c4cccc(OCc5ccc(Cl)cc5)n4)CC3)n(C[C@@H]3CCO3)c2c1` [Compound 44, (S)-2-((6-((4-chlorobenzyl)oxy)-3′,6′-dihydro-[2,4′-bipyridin]-1′(2′H)-yl)methyl)-1-(oxetan-2-ylmethyl)-1H-benzo[d]imidazole-6-carboxylic acid] in this work. A pEC50 of at least 7.82 was found for `O=C(O)c1ccc2nc(CN3CC=C(c4cccc(OCc5ccc(Cl)cc5F)n4)CC3)n(C[C@@H]3CCO3)c2c1F` [Compound 171, (S)-2-((6-((4-chloro-2-fluorobenzyl)oxy)-3′,6′-dihydro-[2,4′-bipyridin]-1′(2′H)-yl)methyl)-7-fluoro-1-(oxetan-2-ylmethyl)-1H-benzo[d]imidazole-6-carboxylic acid] in this work. A pEC50 of at least 7.82 was found for `COc1ccc(COc2cccc(C3=CCN(Cc4nc5ccc(C(=O)O)cc5n4C[C@@H]4CCO4)CC3)n2)cn1` [Compound 119, (S)-2-((6-((6-methoxypyridin-3-yl)methoxy)-3′,6′-dihydro-[2,4′-bipyridin]-1(2′H)-yl)methyl)-1-(oxetan-2-ylmethyl)-1H-benzo[d]imidazole-6-carboxylic acid] in this work. A pEC50 of at least 6.82 was found for `O=C(O)c1ccc2nc(CN3CC=C(c4cccc(N5CCc6cc(Cl)ccc6C5)n4)CC3)n(C[C@@H]3CCO3)c2c1` [Compound 39, (S)-2-((6-(6-chloro-3,4-dihydroisoquinolin-2(1H)-yl)-3′,6′-dihydro-[2,4′-bipyridin]-1′(2′H)-yl)methyl)-1-(oxetan-2-ylmethyl)-1 h-benzo[d]imidazole-6-carboxylic add] in this work. A pEC50 of at least 7.82 was found for `O=C(O)c1ccc2nc(CN3CC=C(c4cccc(OCc5ccc(F)cc5Cl)n4)CC3)n(C[C@@H]3CCO3)c2c1` [Compound 144, (S)-2-((6-((2-chloro-4-fluorobenzyl)oxy)-3′,6′-dihydro-[2,4′-bipyridin]-1′(2′H)-yl)methyl)-1-(oxetan-2-ylmethyl)-1H-benzo[d]imidazole-6-carboxylic acid] in this work. A pEC50 of at least 7.82 was found for `C#Cc1ccc(COc2cccc(C3=CCN(Cc4nc5ccc(C(=O)O)cc5n4C[C@@H]4CCO4)CC3)n2)c(F)c1` [Compound 68, (S)-2-((6-((4-ethynyl-2-fluorobenzyl)oxy)-3‘f’-dihydro-[2,4′-bipyridin]-1′(2′H)-yl)methyl)-1-(oxetan-2-ylmethyl)-1H-benzo[d]imidazole-6-carboxylic acid] in this work. A pEC50 of at least 6.82 was found for `O=C(O)c1ccc2nc(CN3CC=C(c4cccc(OCc5ncc(Cl)cn5)n4)CC3)n(C[C@@H]3CCO3)c2c1` [Compound 164, (S)-2-((6-((5-chloropyrimidin-2-yl)methoxy)-3′,6′-dihydro-[2H′-bipyridin]-1′(2′H)-yl)methyl)-1-(oxetan-2-ylmethyl)-1H-benzo[d]imidazole-6-carboxylic acid] in this work. A pEC50 of at least 6.82 was found for `N#Cc1ccc(COc2cccc(C3CCN(Cc4nc5ccc(C(=O)O)cc5n4C[C@@H]4CCO4)CC3)c2)c(F)c1` [Compound 191, (S)-2-((4-(3-((4-cyano-2-fluorobenzyl)oxy)phenyl)piperidin-1-yl)methyl)-1-(oxetan-2-ylmethyl)-1H-benzo[d]imidazole-6-carboxylic acid] in this work. A pEC50 of at least 6.82 was found for `N#Cc1ccc(COc2cccc(N3CCC(Cc4nc5ccc(C(=O)O)nc5n4C[C@@H]4CCO4)CC3)n2)nc1` [Compound 231, (S)-2-((l-(6-((5-cyanopyridin-2-yl)methoxy)pyridin-2-yl)piperidin-4-yl)methyl)-3-(oxetan-2-ylmethyl)-3H-imidazo[4,5-b]pyridine-5-carboxylic acid] in this work. A pEC50 of at least 6.00 was found for `O=C(O)c1ccc2nc(CN3CC=C(c4cccc(OCc5ccc(Cl)cc5F)c4F)CC3)n(C[C@@H]3CCO3)c2c1` [Compound 40, (S)-2-((4-(3-(4-chloro-2-fluorobenzyloxy)-2-fluorophenyl)-5,6-dihydropyridin-1(2H)-yl)methyl)-1-(oxetan-2-ylmethyl)-1 h-benzo[d]imidazole-6-carboxylic add] in this work. A pEC50 of at least 7.82 was found for `N#Cc1ccc(COc2ncc(F)c(C3=CCN(Cc4nc5ccc(C(=O)O)cc5n4C[C@@H]4CCO4)CC3)n2)c(F)c1` [Compound 210, (S)-2-((4-(2-(4-cyano-2-fluorobenzyloxy)-5-fluoropyrimidin-4-yl)-5,6-dihydropyridin-1(2H)-yl)methyl)-1-(oxetan-2-ylmethyl)-1H-benzo[d]imidazole-6-carboxylic add] in this work. A pEC50 of at least 6.82 was found for `O=C(O)c1ccc2nc(CN3CC=C(c4cccc(OCc5cc(Cl)cc(Cl)c5)n4)CC3)n(C[C@@H]3CCO3)c2c1` [Compound 139, (S)-2-((6-((3,5-dichlorobenzyl)oxy)-3′,6′-dihydro-[2,4′-bipyridin]-1′(2′H)-yl)methyl)-1-(oxetan-2-ylmethyl)-1H-benzo[d]imidazole-6-carboxylic acid] in this work. A pEC50 of under 6.00 was found for `O=C(O)c1ccc2nc(CN3CCCN(c4cccc(OCc5ccc(Cl)cc5F)n4)C(=O)C3)n(C[C@@H]3CCO3)c2c1` [Compound 56, (S)-2-((4-(6-((4-chloro-2-fluorobenzyl)oxy)pyridin-2-yl)-3-oxo-1,4-diazepan-1-yl)methyl)-1-(oxetan-2-ylmethyl)-1H-benzo[d]imidazole-6-carboxylic acid] in this work. A pEC50 of at least 7.82 was found for `CC(C)c1ccc(COc2cccc(C3=CCN(Cc4nc5ccc(C(=O)O)cc5n4C[C@@H]4CCO4)CC3)n2)cc1` [Compound 148] in this work. A pEC50 of at least 6.82 was found for `O=C(O)c1ccc2nc(CN3CC=C(c4ncc(F)c(NCc5ccc(Cl)cc5F)n4)CC3)n(C[C@@H]3CCO3)c2c1` [Compound 122, (S)-2-((4-(4-(4-chloro-2-fluorobenzylamino)-5-fluoropyrimidin-2-yl)-5,6-dihydropyridin-1(2H)-yl)methyl)-1-(oxetan-2-ylmethyl)-1H-benzo[d]imidazole-6-carboxylic acid] in this work. A pEC50 of at least 7.82 was found for `Cc1cc2nc(CN3CC=C(c4cccc(OCc5ccc(Cl)cc5)n4)CC3)n(C[C@@H]3CCO3)c2cc1C(=O)O` [Compound 111, (S)-2-((4-(6-(4-chlorobenzyloxy)pyridin-2-yl)-5,6-dihydropyridin-1(2H)-yl)methyl)-5-methyl-1-(oxetan-2-ylmethyl)-1H-benzo[d]imidazole-6-carboxylic acid] in this work. A pEC50 of under 6.00 was found for `Cn1ccnc1Cn1c(CN2CCN(c3ccc4c(n3)N(Cc3ccc(Cl)cc3F)CCO4)CC2)nc2ccc(C(=O)O)cc21` [Compound 5, 2-((4-(4-(4-chloro-2-fluorobenzyl)-3,4-dihydro-2 h-pyrido[3,2-b][1,4]oxazin-6-yl)piperazin-1-yl)methyl)-1-((l-methyl-1 h-imidazol-2-yl)methyl)-1 h-benzo[d] imidazole-6-carboxylic acid] in this work. A pEC50 of at least 6.82 was found for `O=C(O)c1ccc2nc(CN3CC=C(c4cc5cc[nH]c5c(OCc5ccc(Cl)cc5F)n4)CC3)n(C[C@@H]3CCO3)c2c1` [Compound 48, (S)-2-((4-(7-((4-chloro-2-fluorobenzyl)oxy)-1 h-pyrrolo[2,3-c]pyridin-5-yl)-3,6-dihydropyridin-1(2H)-yl)methyl)-1-(oxetan-2-ylmethyl)-1 h-benzo[d]imidazole-6-carboxylic acid] in this work.
